{"source": "patent US10906910B2", "about": "“Substituted bicyclic pyrimidine compounds with tubulin and multiple receptor inhibition” (Duquesne University of the Holy Spirit, priority 2014, dated 2021)", "key": {"wild type HeLa cells": {"tested_on": "wild type HeLa cells", "assay": "HeLa cytotoxicity, wild type", "type": "cell-based"}, "[1]": {"tested_on": "βIII-tubulin overexpressing HeLa cell line", "assay": "HeLa cytotoxicity, βIII-tubulin overexpressing", "type": "cell-based", "details": "for IC50: βIII-tubulin overexpressing HeLa"}, "MTD in mice": {"assay": "MTD in mice", "details": "BALB/c, mouse, in vivo, ip", "method": "(§1) BALB/c mice were implanted with 7.5 k 4T1-Luc2GFP triple negative mouse breast cancer cells orthotopically into mammary fat pad 4. 7 days after implantation, tumors are visible in over 90% of animals. At day 8 and continuing twice weekly until the experiment end, the MTD of compound 4.HCl (i.e. the hydrochloride salt of compound 4 shown in FIG. 1), determined to be 40 mg/kg, was given IP to tumor-bearing mice; […]; Both drugs were in solvent (5% solutol-15, 5% PharmaSolve in normal saline) and a solvent control group was included in addition to sham injected (untreated) group. Primary tumor volume and animal weights was assessed by calipers throughout the experiment."}, "[2]": {"tested_on": "4T1-Luc2GFP triple negative mouse breast cancer cells", "type": "in vivo", "method": "as §1\nOn day 40, all animals were injected IV with fluorescently labeled dextran as a marker of vasculature. Tumors were excised and weighed; lungs were excised and evaluated for metastases. […]; large micro metastases (>10 cells with no vasculature) and macrometastases (>10 cells with apparent vasculature) were counted. […]"}}, "note": "Structures can show the parent of a compound that is named as a salt. Where two headings read alike, the source gives them in different places.", "data": [{"compound": "CC(=O)O[C@@]12CO[C@@H]1C[C@H](O)[C@@]1(C)C(=O)[C@H](O)C3=C(C)[C@@H](OC(=O)[C@H](O)[C@@H](NC(=O)OC(C)(C)C)c4ccccc4)C[C@@](O)([C@@H](OC(=O)c4ccccc4)[C@H]21)C3(C)C", "note": "[docetaxel]", "values": [{"measurement": "IC50", "setting": "wild type HeLa cells; Homo sapiens", "result": "4 ± 2", "unit": "nM"}, {"measurement": "fold less potent in βIII-tubulin overexpressing cell line than in wild type HeLa cells", "setting": "[1]", "result": 3, "unit": "fold"}, {"measurement": "IC50", "setting": "[1]; Homo sapiens", "result": "13 ± 4", "unit": "nM"}]}, {"compound": "CC(=O)O[C@H]1C(=O)[C@@]2(C)[C@H]([C@H](OC(=O)c3ccccc3)[C@]3(O)C[C@H](OC(=O)[C@H](O)[C@@H](NC(=O)c4ccccc4)c4ccccc4)C(C)=C1C3(C)C)[C@]1(OC(C)=O)CO[C@@H]1C[C@@H]2O", "note": "[paclitaxel]", "values": [{"measurement": "IC50", "setting": "wild type HeLa cells; Homo sapiens", "result": "5.3 ± 2", "unit": "nM"}, {"measurement": "fold less potent in βIII-tubulin overexpressing cell line than in wild type HeLa cells", "setting": "[1]", "result": 3, "unit": "fold"}, {"measurement": "IC50", "setting": "[1]; Homo sapiens", "result": "16.1 ± 1", "unit": "nM"}]}, {"compound": "COc1ccc(/C=C\\c2cc(OC)c(OC)c(OC)c2)cc1O", "note": "[combretastatin A-4, reference compound]", "values": [{"measurement": "IC50", "setting": "wild type HeLa cells", "result": 1.8, "unit": "nM"}, {"measurement": "IC50", "setting": "[1]", "result": "2.5 ± 0.7", "unit": "nM"}]}, {"compound": "COc1ccc(N(C)c2nc(C)nc3c(Cc4ccccc4)cn(C)c23)cc1", "note": "[Compound 4.HCl, 7-Benzyl-N-(4-methoxyphenyl)-N,2,5-trimethyl-5H-pyrrolo[3,2-d]pyrimidin-4-amine]", "values": [{"measurement": "MTD", "setting": "MTD in mice", "result": 40, "unit": "mg/kg"}, {"measurement": "4T1 primary tumor growth (volume)", "setting": "[2]; 40 mg/kg IP twice weekly from day 8, vs carrier or vs doxorubicin, FIG. 2", "result": "significantly reduced 4T1 primary growth"}, {"measurement": "number of lung small micro metastases", "setting": "[2]; day 40, 1-9 cells without any vasculature, FIG. 5", "result": "reduced the number of lung small micro metastases"}, {"measurement": "lung macrometastases", "setting": "[2]; day 40, >10 cells with apparent vasculature, FIG. 5", "result": "none had any lung macrometastases"}, {"measurement": "tumor weight at the end of the experiment", "setting": "[2]; day 40, FIG. 4", "result": "reduced tumor weight"}, {"measurement": "animal weight", "setting": "[2]; mouse, in vivo", "result": "no change in animal weight"}]}]}
